“Also recorded” adds a separate entry of the source.
Assays:
mice = conditions: Stafstrom et al., 2009; cited from earlier work
rats [1] = conditions: rat, in vivo, 250 mg/kg
Experimental: For example, dosage amount and interval of 2-DG administration can be adjusted individually to reduce incidence, frequency, duration or intensity of deleterious sequellae of TBI, particularly PTE, using doses of 40 mg/kg or less to higher as tolerated to reduce seizure frequency and minimize toxicity. […] A practitioner skilled in the art can adjust dosage in the range of 2-250 mg/kg and the timing of administration to produce prolonged neuroprotectant effects. Efficacious dosage amounts can be adjusted in children and adults, for establishing effective dosage levels.

hippocampal brain slices = conditions: evoked by 7.5 mM [K+]o, 4-amino-pyridine, bicuculline, DHPG; Stafstrom et al., 2009; cited from earlier work
[2] = Mattson, 1999; cited from earlier work
[3] = test system: rats with TBI induced by CCI in fronto-parietal and temporo-parietal cortex; assay: Lateral ventricle volume by T2W MRI after TBI induced by controlled cortical impact (CCI); type: in vivo, rat; conditions: for proportional change in lateral ventricle volume from 1 week to 1 month following injury: in vivo T2W MRI, 2DG 40 mg/kg IP 30 min prior to CCI, then 250 mg/kg immediately after and twice daily for 2 weeks, change significantly greater for saline than 2DG (p=0.015)
From the text: “Fast” rats and “slow” rats from the 9th-11th generations selected by these procedures were subjected to TBI induced by the method of controlled cortical impact (CCI) using published protocols (see Dixon et al., 1991, J. Neuro. Meth. 39: 253-262). During the induction of TBI by CCI, the rats were deeply anesthetized with isoflurane (3% for induction, 1.5-2.5% for maintenance) and were placed in a stereotaxic frame. After craniotomy with the dura intact, anesthesia was reduced to 1% isoflurane for a 5-min equilibration period and CCI was performed over temporo-parietal cortex (−1 to −6 mm from bregma, below lateral skull ridge) and fronto-parietal cortex (+5.3 to −0.3 mm from bregma, below lateral skull ridge), which are more and less likely, respectively, to damage the hippocampus and amygdala. Brain lesions were induced by a digitally-controlled contusion device using a pneumatically driven impactor with a sterilized rounded stainless steel tip (3-4 mm in diameter) which compresses the cortex with a specified velocity, depth, and dwell time varied to induce a range of injury severity (ranging from mild, with parameters of 4.0 m/s, 1.0 mm deformation, dwell time 50 mS, to severe, at 6.0 m/s, 2.5 mm deformation, dwell time 50 mS). […]
The effects of 2DG on TBI induced by CCI in fronto-parietal and temporo-parietal cortex were evaluated in “fast” kindling-susceptible and “slow” kindling-resistant rats. […]
(§1) The effects of 2DG treatment on the location, severity, and progression of induced cortical and subcortical damage were assessed in serial in vivo magnetic resonance imaging (MRI) and diffusion tensor imaging (DTI) studies at 1 week, 1 month, and 6 months after TBI as well as high-resolution ex vivo DTI of brains harvested from the same rats following the final in vivo imaging session. DTI is an advanced MRI modality that offers a unique view of the brain in its ability to report quantitative microstructural information at the whole-brain and in vivo scales. […]

[4] = test system: rats with TBI induced by CCI in fronto-parietal and temporo-parietal cortex; assay: Hippocampal DTI measures (MD, FA laterality index) after TBI induced by CCI; type: in vivo, rat; conditions: for in vivo hippocampal FA laterality index (LRI): fast and slow kindling strains, strain by treatment interaction p=0.088, saline vs 2DG at 1 month p=0.08; for change in in vivo ipsilateral hippocampal MD between 1 week and 6 months: paired t-test: saline p=0.0026, 2DG p=0.289, treatment by time interaction p=0.064
From the text: (§2) “Fast” rats and “slow” rats from the 9th-11th generations selected by these procedures were subjected to TBI induced by the method of controlled cortical impact (CCI) using published protocols (see Dixon et al., 1991, J. Neuro. Meth. 39: 253-262). During the induction of TBI by CCI, the rats were deeply anesthetized with isoflurane (3% for induction, 1.5-2.5% for maintenance) and were placed in a stereotaxic frame. After craniotomy with the dura intact, anesthesia was reduced to 1% isoflurane for a 5-min equilibration period and CCI was performed over temporo-parietal cortex (−1 to −6 mm from bregma, below lateral skull ridge) and fronto-parietal cortex (+5.3 to −0.3 mm from bregma, below lateral skull ridge), which are more and less likely, respectively, to damage the hippocampus and amygdala. Brain lesions were induced by a digitally-controlled contusion device using a pneumatically driven impactor with a sterilized rounded stainless steel tip (3-4 mm in diameter) which compresses the cortex with a specified velocity, depth, and dwell time varied to induce a range of injury severity (ranging from mild, with parameters of 4.0 m/s, 1.0 mm deformation, dwell time 50 mS, to severe, at 6.0 m/s, 2.5 mm deformation, dwell time 50 mS). Anesthesia was then administered at maintenance levels (1.5-2.5%), the craniotomy and wound were closed, and the rats were allowed to recover. The location, severity, and progression of induced cortical and subcortical damage was examined by serial in vivo magnetic resonance imaging (MRI) and diffusion tensor imaging (DTI) techniques at 1 week, 1 month, and 6 months after TBI.
(§3) The effects of 2DG on TBI induced by CCI in fronto-parietal and temporo-parietal cortex were evaluated in “fast” kindling-susceptible and “slow” kindling-resistant rats. Half of the rats from these strains received 2DG at 40 mg/kg IP 30 min prior to CCI, and then 250 mg/kg immediately after and twice daily for 2 weeks. These rats were compared to control groups with TBI induced by CCI that were treated only with an equivalent volume of saline. Both treatment groups were also compared to sham-injured rats that underwent all aspects of the experimental manipulations except for CCI.
The effects of 2DG treatment on the location, severity, and progression of induced cortical and subcortical damage were assessed in serial in vivo magnetic resonance imaging (MRI) and diffusion tensor imaging (DTI) studies at 1 week, 1 month, and 6 months after TBI as well as high-resolution ex vivo DTI of brains harvested from the same rats following the final in vivo imaging session. DTI is an advanced MRI modality that offers a unique view of the brain in its ability to report quantitative microstructural information at the whole-brain and in vivo scales. The most commonly reported DTI indices are fractional anisotropy (FA), which characterizes the “directionalness” of tissue structure (e.g. high in white matter and low in grey matter and CSF) and mean diffusion (MD), which characterizes water status (“free” or “restricted”) due to cellular barriers (e.g. high in CSF and low in tissue). Both indices are known to be sensitive to damage and other structural changes such as tissue/circuit reorganization. This makes DTI an attractive modality to investigate disorders with known or hypothesized structural abnormalities such as TBI.
MRI scanning was performed using a Varian 4.7 T scanner and a quadrature birdcage volume coil was used to transmit and receive the MRI signal. […]

ischemic rat = conditions: Combs et al., 1986; cited from earlier work
rats [5] = conditions: perforant path and olfactory bulb stimulation in rats; Garriga-Canut et al., 2006; Stafstrom et al., 2009; cited from earlier work
[6] = test system: rats with TBI induced by CCI in fronto-parietal and temporo-parietal cortex; assay: Corpus callosum and fornix DTI (FA) after TBI induced by CCI; type: in vivo, rat; conditions: for ex vivo corpus callosum (CC) FA: CCI location by treatment interaction p=0.038, fronto-parietal CCI
From the text: as §2, §3, §1

O=CC[C@@H](O)[C@H](O)[C@H](O)CO [2DG, 2-deoxy-D-glucose]
anticonvulsant activity against seizures evoked by 6 Hz and audiogenic stimulation (mice): acute in vivo anticonvulsant activity | tolerability (rats [1]): well tolerated | epileptic discharges evoked in hippocampal brain slices (hippocampal brain slices): acute in vitro reduction of epileptic discharges | brain damage initiated by seizures induced by kainic acid [2]: reduced brain damage | ex vivo lateral ventricle volumes ([3]; brains harvested after 6 months, ANOVA treatment main effect p=0.16, strain by treatment interaction p=0.06, greater volumes for saline, most evident in slow-kindled strain): protection from gross tissue loss | proportional change in lateral ventricle volume from 1 week to 1 month following injury [3]: reduced progressive volumetric changes | proportional change in lateral ventricle volume from 1 week to 1 month following injury ([3]; listed as 2-DG): p<0.05 for the saline but not the 2-DG treated group | ex vivo ipsilateral hippocampal MD ([4]; ANOVA main effect for treatment p=0.002, compared with saline and sham-injured controls): restored MD measurements to the range of normal values observed in controls | in vivo hippocampal FA laterality index (LRI) [4]: appeared to abolish the pattern of increased LRI over 1 week to 1 month in both strains | in vivo hippocampal FA laterality index (LRI) ([4]; listed as 2-DG): reduces FA LRI in both strains | change in in vivo ipsilateral hippocampal MD between 1 week and 6 months [4]: not for the 2DG treated groups | change in in vivo ipsilateral hippocampal MD between 1 week and 6 months ([4]; listed as 2-DG): no significant change | brain damage initiated by ischemia (ischemic rat): reduced brain damage | slowing of progression of kindled seizures (rats [5]): 2 fold | ex vivo corpus callosum (CC) FA [6]: FA was highest for fronto-parietal, 2DG treated rats | ex vivo corpus callosum (CC) FA ([6]; listed as 2-DG): reduced in all groups except for 2-DG treated rats with fronto-parietal CCI | ex vivo fornix FA ([6]; fronto-parietal CCI vs temporo-parietal CCI, 2-DG vs saline): reduced in all groups except for 2-DG treated rats with fronto-parietal CCI | in vivo anterior corpus callosum (aCC) FA, change from one week to six months ([6]; paired t-test: 2DG p=0.0099, saline p=0.8396, treatment by time interaction p=0.073): increase in aCC FA by 6 months post-CCI that nearly reaches control values; also recorded: significant change from one week to six months

Source: patent US8633165B2, “Neuroprotective effects of 2DG in traumatic brain injury” (Wisconsin Alumni Research Foundation, priority 2010, dated 2014)
